According to ChEMBL document CHEMBL5465560, “Selectivity Literature for EUbOPEN Chemogenomic Library” (2024):

Assays:
[1] = target: T1, Dual specificity mitogen-activated protein kinase kinase 5 (Homo sapiens) (UniProt Q13163); test: Selectivity interaction (KinomeScan (DiscoverX)) EUB0000595a MAP2K5; conditions: at 10 µM
T1 sequence (whole entry): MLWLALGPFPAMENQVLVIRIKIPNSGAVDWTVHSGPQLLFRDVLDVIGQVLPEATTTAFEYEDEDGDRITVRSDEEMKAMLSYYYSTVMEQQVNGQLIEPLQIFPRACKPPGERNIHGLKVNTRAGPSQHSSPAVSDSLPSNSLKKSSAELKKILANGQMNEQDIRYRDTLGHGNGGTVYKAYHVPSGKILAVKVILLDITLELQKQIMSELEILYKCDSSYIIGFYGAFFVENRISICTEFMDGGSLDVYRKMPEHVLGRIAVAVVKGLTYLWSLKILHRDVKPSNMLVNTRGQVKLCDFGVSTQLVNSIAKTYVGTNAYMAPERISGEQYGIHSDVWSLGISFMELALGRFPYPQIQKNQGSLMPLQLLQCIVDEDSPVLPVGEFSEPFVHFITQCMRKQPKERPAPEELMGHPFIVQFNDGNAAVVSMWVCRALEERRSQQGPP

[2] = target: T2, Mitogen-activated protein kinase kinase kinase 19 (Homo sapiens) (UniProt Q56UN5); test: Selectivity interaction (KinomeScan (DiscoverX)) EUB0000045b MAP3K19
T2 sequence (whole entry): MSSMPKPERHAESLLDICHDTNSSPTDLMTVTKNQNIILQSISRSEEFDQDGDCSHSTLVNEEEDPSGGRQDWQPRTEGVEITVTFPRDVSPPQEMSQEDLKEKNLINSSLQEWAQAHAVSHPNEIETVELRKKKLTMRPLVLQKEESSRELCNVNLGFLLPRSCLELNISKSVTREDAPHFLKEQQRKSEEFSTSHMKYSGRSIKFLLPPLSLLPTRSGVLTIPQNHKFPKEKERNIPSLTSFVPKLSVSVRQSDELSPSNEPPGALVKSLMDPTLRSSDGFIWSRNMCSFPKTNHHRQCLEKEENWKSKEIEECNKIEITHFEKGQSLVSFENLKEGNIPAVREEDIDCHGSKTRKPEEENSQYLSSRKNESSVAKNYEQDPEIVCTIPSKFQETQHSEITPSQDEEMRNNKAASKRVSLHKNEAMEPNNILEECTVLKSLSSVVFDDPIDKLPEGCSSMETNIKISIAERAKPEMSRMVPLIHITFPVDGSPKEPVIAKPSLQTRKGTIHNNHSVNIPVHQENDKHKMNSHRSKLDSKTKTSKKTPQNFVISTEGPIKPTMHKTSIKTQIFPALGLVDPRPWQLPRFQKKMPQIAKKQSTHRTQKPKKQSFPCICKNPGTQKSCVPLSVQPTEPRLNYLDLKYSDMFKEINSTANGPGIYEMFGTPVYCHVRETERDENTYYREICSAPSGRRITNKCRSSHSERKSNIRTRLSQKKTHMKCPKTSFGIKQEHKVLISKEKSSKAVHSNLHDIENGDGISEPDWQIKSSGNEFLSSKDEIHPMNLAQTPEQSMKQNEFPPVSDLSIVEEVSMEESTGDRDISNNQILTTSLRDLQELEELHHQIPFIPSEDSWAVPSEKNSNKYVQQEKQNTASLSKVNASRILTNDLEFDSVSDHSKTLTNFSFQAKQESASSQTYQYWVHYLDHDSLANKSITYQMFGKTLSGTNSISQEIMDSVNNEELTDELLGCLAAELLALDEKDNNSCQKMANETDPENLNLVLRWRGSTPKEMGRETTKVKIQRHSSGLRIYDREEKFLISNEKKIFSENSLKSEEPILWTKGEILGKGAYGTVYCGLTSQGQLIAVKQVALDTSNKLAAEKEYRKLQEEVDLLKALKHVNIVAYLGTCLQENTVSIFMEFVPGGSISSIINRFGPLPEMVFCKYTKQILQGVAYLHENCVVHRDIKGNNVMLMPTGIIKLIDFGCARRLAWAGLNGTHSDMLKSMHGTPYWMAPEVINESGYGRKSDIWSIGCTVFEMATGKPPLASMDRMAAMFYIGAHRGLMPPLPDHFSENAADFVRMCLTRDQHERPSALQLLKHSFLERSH

[3] = test system: Tyrosine-protein kinase ABL1 (Homo sapiens), P00519 [E255K]; conditions: at 10 µM
[4] = target: Homeodomain-interacting protein kinase 1 (Homo sapiens, UniProt Q86Z02); test: Selectivity interaction (KinomeScan (DiscoverX)) EUB0000618a HIPK1; conditions: at 10 µM
[5] = target: T3, Receptor-interacting serine/threonine-protein kinase 1 (Homo sapiens) (UniProt Q13546); test: Selectivity interaction (KinomeScan (DiscoverX)) EUB0000618a RIPK1; conditions: at 10 µM
T3 sequence (whole entry): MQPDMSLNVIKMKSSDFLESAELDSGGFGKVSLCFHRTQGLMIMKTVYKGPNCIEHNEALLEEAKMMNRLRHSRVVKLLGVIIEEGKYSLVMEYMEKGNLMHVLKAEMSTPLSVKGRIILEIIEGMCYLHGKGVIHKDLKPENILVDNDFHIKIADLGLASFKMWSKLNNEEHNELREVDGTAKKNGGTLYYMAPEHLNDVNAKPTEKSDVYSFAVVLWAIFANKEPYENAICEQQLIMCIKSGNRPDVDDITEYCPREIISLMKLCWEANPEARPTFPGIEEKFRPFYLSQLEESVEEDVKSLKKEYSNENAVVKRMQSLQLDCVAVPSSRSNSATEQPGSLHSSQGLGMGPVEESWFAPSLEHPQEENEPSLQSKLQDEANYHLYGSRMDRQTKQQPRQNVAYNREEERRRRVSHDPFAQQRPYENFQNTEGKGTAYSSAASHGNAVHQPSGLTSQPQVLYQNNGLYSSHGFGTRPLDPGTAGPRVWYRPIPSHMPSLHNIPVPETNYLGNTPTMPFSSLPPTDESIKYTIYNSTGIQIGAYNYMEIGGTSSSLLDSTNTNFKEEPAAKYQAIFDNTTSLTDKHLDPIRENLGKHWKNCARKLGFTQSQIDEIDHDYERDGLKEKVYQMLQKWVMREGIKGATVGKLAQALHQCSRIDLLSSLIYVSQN

Sequence of Homeodomain-interacting protein kinase 1 (Q86Z02 whole entry, looked up): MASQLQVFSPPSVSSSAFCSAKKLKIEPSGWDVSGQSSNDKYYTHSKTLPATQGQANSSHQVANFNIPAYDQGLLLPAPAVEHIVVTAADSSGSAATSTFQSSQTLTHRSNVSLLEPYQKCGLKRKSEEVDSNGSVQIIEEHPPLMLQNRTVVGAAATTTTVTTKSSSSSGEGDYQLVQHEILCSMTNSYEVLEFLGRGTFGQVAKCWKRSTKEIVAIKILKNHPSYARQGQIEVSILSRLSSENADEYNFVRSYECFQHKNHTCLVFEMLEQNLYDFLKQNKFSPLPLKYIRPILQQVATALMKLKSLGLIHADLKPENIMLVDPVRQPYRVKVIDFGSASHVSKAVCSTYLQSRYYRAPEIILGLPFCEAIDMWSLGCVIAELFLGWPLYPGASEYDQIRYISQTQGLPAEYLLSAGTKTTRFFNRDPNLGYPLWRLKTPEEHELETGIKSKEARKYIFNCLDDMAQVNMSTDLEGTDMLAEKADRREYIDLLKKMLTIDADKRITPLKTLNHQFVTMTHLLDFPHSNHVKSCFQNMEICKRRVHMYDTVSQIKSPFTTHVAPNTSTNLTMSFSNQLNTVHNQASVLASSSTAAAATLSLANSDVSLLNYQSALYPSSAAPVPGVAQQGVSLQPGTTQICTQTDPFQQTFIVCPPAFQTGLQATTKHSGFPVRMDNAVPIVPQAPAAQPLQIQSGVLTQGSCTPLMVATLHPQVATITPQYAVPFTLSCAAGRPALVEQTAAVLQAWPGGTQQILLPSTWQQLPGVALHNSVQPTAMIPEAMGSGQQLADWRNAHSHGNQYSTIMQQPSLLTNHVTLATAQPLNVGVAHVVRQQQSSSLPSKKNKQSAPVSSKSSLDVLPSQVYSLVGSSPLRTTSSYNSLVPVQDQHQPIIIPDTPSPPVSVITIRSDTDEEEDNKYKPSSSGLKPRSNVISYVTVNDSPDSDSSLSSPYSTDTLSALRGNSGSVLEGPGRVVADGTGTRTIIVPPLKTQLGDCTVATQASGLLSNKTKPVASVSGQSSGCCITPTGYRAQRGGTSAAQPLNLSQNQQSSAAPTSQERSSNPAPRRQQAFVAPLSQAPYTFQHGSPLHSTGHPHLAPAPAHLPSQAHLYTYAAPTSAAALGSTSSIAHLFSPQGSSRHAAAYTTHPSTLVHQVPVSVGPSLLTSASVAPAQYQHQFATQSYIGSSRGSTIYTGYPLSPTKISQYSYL
Sequence of Tyrosine-protein kinase ABL1 (Homo sapiens), P00519 [E255K] (P00519 whole entry E255K): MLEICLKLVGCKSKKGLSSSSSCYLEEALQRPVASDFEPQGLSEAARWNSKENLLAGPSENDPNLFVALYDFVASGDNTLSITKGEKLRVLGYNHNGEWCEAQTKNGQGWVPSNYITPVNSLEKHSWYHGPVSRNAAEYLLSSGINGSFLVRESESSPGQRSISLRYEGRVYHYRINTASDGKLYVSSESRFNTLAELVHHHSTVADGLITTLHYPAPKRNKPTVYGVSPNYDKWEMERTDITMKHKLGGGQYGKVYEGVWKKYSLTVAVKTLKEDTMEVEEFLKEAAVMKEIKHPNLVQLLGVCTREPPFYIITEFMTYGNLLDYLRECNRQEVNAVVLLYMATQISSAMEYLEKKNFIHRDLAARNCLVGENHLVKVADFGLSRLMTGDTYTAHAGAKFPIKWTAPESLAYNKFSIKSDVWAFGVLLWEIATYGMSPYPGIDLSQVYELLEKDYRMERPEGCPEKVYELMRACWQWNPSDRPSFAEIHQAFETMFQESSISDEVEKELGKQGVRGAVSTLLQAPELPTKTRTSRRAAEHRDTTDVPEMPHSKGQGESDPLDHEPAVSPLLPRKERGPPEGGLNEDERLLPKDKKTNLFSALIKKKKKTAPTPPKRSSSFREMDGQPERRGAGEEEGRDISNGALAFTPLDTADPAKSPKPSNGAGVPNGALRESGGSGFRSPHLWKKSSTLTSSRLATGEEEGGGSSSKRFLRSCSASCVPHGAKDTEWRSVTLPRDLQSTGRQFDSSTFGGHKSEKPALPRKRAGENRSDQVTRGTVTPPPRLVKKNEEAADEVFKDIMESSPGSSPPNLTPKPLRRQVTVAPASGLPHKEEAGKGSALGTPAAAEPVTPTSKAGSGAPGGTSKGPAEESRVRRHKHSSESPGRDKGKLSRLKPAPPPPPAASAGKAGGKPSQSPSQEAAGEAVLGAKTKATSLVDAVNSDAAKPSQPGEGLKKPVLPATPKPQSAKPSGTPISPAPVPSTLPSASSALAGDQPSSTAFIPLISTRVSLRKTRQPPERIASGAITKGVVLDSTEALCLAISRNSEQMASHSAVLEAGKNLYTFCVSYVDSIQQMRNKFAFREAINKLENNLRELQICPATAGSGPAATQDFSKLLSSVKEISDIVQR

SMILES: COCC(=O)NC/C=C/c1ccc2ncnc(Nc3ccc(Oc4ccc(C)nc4)c(C)c3)c2c1 [CP-724714]
- % of control [1]: 0.2%

SMILES: C=CC(=O)Nc1cc(-n2c(=O)ccc3cnc4ccc(-c5ccc(NS(C)(=O)=O)cc5)cc4c32)ccc1C
- % of control ([2]; at 1 µM): 100%
- % of control ([2]; at 10 µM): 65%

SMILES: Cc1cc([C@@H](C)Nc2ccccc2C(=O)O)c2nc(N3CCOCC3)cc(=O)n2c1 [AZD-6482]
- % of control [3]: 94%

SMILES: O[C@H]1CC[C@H](Nc2ncc3nc(Nc4c(F)cc(F)cc4F)n([C@H]4CCOC4)c3n2)CC1
- % of control [4]: 93%
- % of control [5]: 100%
